#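 Protocol summary: plate cells (96-well), add compound at 5 concentrations, incubate 48 h, interpolate endpoints linearly. TGI is the concentration that stops growth completely.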
# What was measured:
# Assay in all cases: inhibition of tumour cell growth, NCI panel, 48 h
# NCI-H23 lung = system: NCI-H23 lung
# IGROV1 ovarian = system: IGROV1 ovarian
# TK-10 renal = system: TK-10 renal
# T-47D breast = system: T-47D breast
# OVCAR-3 ovarian = system: OVCAR-3 ovarian
# LOX IMVI melanoma = system: LOX IMVI melanoma
# MDA-N = system: MDA-N
# KM12 colon = system: KM12 colon
# SNB-19 CNS = system: SNB-19 CNS
# MDA-MB-231 breast = system: MDA-MB-231 breast
# RXF 393 renal = system: RXF 393 renal
# OVCAR-5 ovarian = system: OVCAR-5 ovarian
# ACHN renal = system: ACHN renal
# SK-OV-3 ovarian = system: SK-OV-3 ovarian
# SK-MEL-28 melanoma = system: SK-MEL-28 melanoma
# EKVX NSCLC = system: EKVX NSCLC
# RPMI-8226 leukemia = system: RPMI-8226 leukemia
# NCI-H522 lung = system: NCI-H522 lung
# HCC-2998 colon = system: HCC-2998 colon
# DU-145 prostate = system: DU-145 prostate
Compound,TGI (NCI-H23 lung) [µM],TGI (IGROV1 ovarian) [µM],TGI (TK-10 renal) [µM],TGI (T-47D breast) [µM],TGI (OVCAR-3 ovarian) [µM],TGI (LOX IMVI melanoma) [µM],TGI (MDA-N) [µM],TGI (KM12 colon) [µM],TGI (SNB-19 CNS) [µM],TGI (MDA-MB-231 breast) [µM],TGI (RXF 393 renal) [µM],TGI (OVCAR-5 ovarian) [µM],TGI (ACHN renal) [µM],TGI (SK-OV-3 ovarian) [µM],TGI (SK-MEL-28 melanoma) [µM],TGI (EKVX NSCLC) [µM],TGI (RPMI-8226 leukemia) [µM],TGI (NCI-H522 lung) [µM],TGI (HCC-2998 colon) [µM],TGI (DU-145 prostate) [µM]
O=C(Nc1nncs1)NS(=O)(=O)n1c(=S)sc2ccccc21,> 100,> 100,> 100,> 100,> 100,> 100,> 100,> 100,> 100,> 100,> 100,> 100,> 100,> 100,> 100,> 100,> 100,> 100,> 100,> 100
COC(=O)[C@H](Cc1c[nH]c2ccccc12)NC(=O)c1ccc(CNC(=O)/C(C)=C/c2ccccc2)cc1,> 100,> 100,> 100,27.7,> 100,> 100,40.3,> 100,> 100,60.6,7.78,> 100,> 100,> 100,36.7,> 100,> 100,62.8,73,> 100
CC(CO)CCNc1ncnc2c1ncn2CCC(=O)OC(C)(C)C (stereo not given),> 100,> 100,> 100,> 100,> 100,> 100,> 100,> 100,> 100,> 100,> 100,> 100,> 100,> 100,> 100,> 100,> 100,> 100,> 100,> 100
Cc1c(C)n(-c2ccccc2)c2nc(S(C)(=O)=O)nc(S(C)(=O)=O)c12,23.3,9.24,3.55,5.52,3.02,3.43,3.43,28.2,25.6,19.4,2.75,3.63,2.91,34.2,6.73,11.7,4.94,3.59,41.2,27.7
CCN1CCC(O)(/C=C/c2ccc(C)cc2)C(C(=O)/C=C/c2ccc(C)cc2)C1 (stereo not given),18.5,17.5,14.4,9.89,18.4,2.59,10.3,5.16,23.5,5.48,10.6,23.2,14.7,29.1,14.8,26.3,10.8,3.62,5.08,25.2
O=C(/C=C/c1ccc(OCc2cccc(Cl)c2)cc1)NO,26,38,67.1,36.7,> 100,24.4,44.5,43,60.7,44.1,42.4,71.5,23.5,49.3,> 100,> 100,44.8,49.4,31,40.8
C/C(=N/NC(=S)Nc1ccc(Cl)cc1)c1cccc(/C(C)=N\NC(=S)Nc2ccc(Cl)cc2)n1,> 100,> 100,> 100,> 100,47.1,26.8,> 100,> 100,> 100,48.4,27.1,> 100,40.3,> 100,45.6,> 100,39.7,27,> 100,65.5
CC(C)(C)OC(=O)NC(Cc1ccc(OC(C)(C)C)cc1)C(=O)N[C@H]1CCC[C@H]1C(=O)NC(Cc1ccccc1)C(=O)N1CCCC1C(N)=O (stereo not given in full),> 100,> 100,> 100,> 100,> 100,> 100,> 100,> 100,> 100,> 100,> 100,> 100,> 100,> 100,> 100,> 100,> 100,> 100,> 100,> 100

# — PubChem BioAssay (NCI)
